Measurements: US20090176741A1, “MODULATION OF THE IMMUNE SYSTEM BY INOSITOL PHOSPHOLIPIDS” (priority 2006, published 2009)

Legend:
[1] = tested on: activated peripheral blood cells; details: Caselli et al. 1992; cited from earlier work
T cells [2] = assay: T cell activation measured by IL-2 cytokine production; assay type: cell-based; details: for T cell activation measured by IL-2 cytokine production: PMA + calcium ionophore A23187
Protocol: A CD1d transfected epithelial cell line T84D was pulsed with alpha-GalactosylCeramide and co-cultured with PI at different concentrations. NKT cell activation was determined by measurement of IL-2 present in the supernatants. FIG. 2: Phosphatidyl-inositol but not myo-inositol blocks CD1d dependent NKT cell activation. A CD1d transfected epithelial cell line T84D was pulsed with a GalactosylCeramide and co-cultured with either solvent control, PI or myo-inositol. NKT cell activation was determined by measurement of IL-2 present in the supernatants. FIG. 3: Differential effect of PI and PS on cellular viability and immune suppression. T cells were suspended at 10^6 cells/ml in 24-wells plates (1 ml suspension per well). Cells were either left untreated (PMA 0 Cal 0) or activated with 5 ng/ml PMA +0.1 μg/ml calcium ionophore A23187 (PMA 5 ng/ml Cal 0.1 ug/ml) in the presence of PI or PS at the indicated concentrations (expressed in pg/ml). Panel A: Following a 24 hour incubation period in the presence of the indicated lipids and stimuli cellular viability was measured using flow cytometric detection of 7-AAD stained cells. […] FIG. 4: IPL strongly affects early survival in oxazolone colitis model. For experimental details see Example 2A. FIG. 5: Suppression of IL-2 production by intestinal T cells upon IPL intrarectal treatment of oxazolone-colitis mice. Mice were treated with saline (group A) or PI (group B) twenty minutes prior to challenge with oxazolone to induce colitis. Mice were sacrificed and intestinal T cells were analyzed for IL-2 production upon stimulation by aCD3/aCD28 during a period of 48 hours (panel A) or 72 hours (panel B). ALN=axillair LN; MLN=[…] LN; ILN=iliacal LN. For further details see Example 2A. FIG. 6: Treatment with IPL (non-liposomal aerosol) prevents the typical histo-pathological changes that are associated with an asthma mouse model. For experimental details see Example 2B. FIG. 7: Treatment with PI (aerosol) prevents the eosinophilia that is associated with an asthma mouse model. For experimental details see Example 2B. FIG. 8: effects of intraperitoneal injection of PI in the TNBS colitis model. […] B The percentage of weight during TNBS colitis is shown. Each dot represents the mean of weights of each group per 0.5 day. Error bars indicate the standard error of the mean. Asterisks indicate significant differences (p<0.05) between TNBS treated mice that received i.p. injections of PI and saline. […] C Histopathology of the whole colon was assessed by blindly scoring each separate field of view at a 4× magnification by means of a TNBS score. […]

[3] = Observation after intravenous PI; assay type: in vivo, mice; details: 200 μl of PI 2 mg/ml (400 μg) intravenously, 3 hour observation period
Description: It will be recognized by those skilled in the art that the optimal quantity and spacing of individual dosages for achieving the therapeutic effects of the pharmaceutical composition, food item or food supplement described herein may easily be determined by the skilled person. They will be determined by the nature and extent of the condition being treated, as well as by the form, route and site of administration, and the particular individual undergoing treatment, and that such optima can be determined by conventional techniques. Typically, the treatment will involve the administration of inositol phospholipid in amount of approximately 0.001 to 1 gram , preferably 0.005 to 0.5 gram, more preferably 0.01 to 0.1 gram per kilogram of body weight per 24 hours. It will also be appreciated by those skilled in the art that the optimal dosage regimen, i.e. the number of doses, can be ascertained using conventional course of treatment determination tests well known in the art. […] Generally speaking, a therapeutic dosing regimen will involve the administration of the selected dosage formulation comprising an inositol phospholipid, e.g. a PI aerosol spray, at least once daily, preferably one to four times daily, until the symptoms have subsided. Or given in times of remission, in order to prevent a disease flare-up (exacerbation). […]

TNBS colitis = TNBS colitis model, intraperitoneal PI; assay type: in vivo, mice
Protocol: Colitis was induced as described previously (Scheiffele, F. and Fuss, I J., 2001, Curr. Protocols Immunol. 15.19.1-15.19.14). In short, on day-7 SJL mice were sensitized epicutaneously with 150 μl 2.5% 2,4,6-trinitrobenzene sulfonic acid (TNBS; Sigma) in 50% ethanol. On day 0, mice were challenged, under anesthesia of isoflurane gas, by rectal administration of 150 μl 2.5% TNBS in 50% ethanol. Negative control mice were challenged with 50% ethanol only. […] Positive (TNBS treated) and negative (ethanol treated) control mice were treated with an intraperitoneal (i.p.) injection of 150 μl of saline at 0, 12, 24, 36, 48 and 60 h. The PI treatment group was treated with […] of 5 mg/ml PI suspended in saline at the same time points. Mice were weighted at 0, 12, 24, 36, 48 and 60 h and were sacrificed at 60 h. Colonic tissue was folded into Swiss rolls, fixed in 4% natural buffered formalin solution and embedded in paraffin. Sections of 5 μm thickness were generated, stained with hematoxylin (Vector Laboratories) and eosin (Sigma) and analyzed by microscopy. Histology was quantified by scoring each separate field of view at a 4× magnification from distal to proximal by means of a previously described TNBS scoring system (Scheiffele, F. and Fuss, I J., 2001, Curr. Protocols Immunol. 15.19.1-15.19.14). Single cell suspensions were made of iliac lymph nodes (ILNs) and mesenteric lymph nodes (MLNs) by sieving trough an 80 μm filter and subsequently lymphocytes were cultured and stimulated with 2 μg/ml anti-CD3 and 2 μg/ml anti-CD28 antibodies. After 48 h of culture the supernatant was collected and release of the pro-inflammatory cytokines IFN-γ and IL-17 (Zhang, Z. et al., 2006, Inflamm. Bowel Dis., 12:382-388) and the anti-inflammatory cytokine IL-10 were measured by means of ELISA (IL-17) or CBA (IFN-γ and IL-10).

[4] = tested on: DN32 cells (NKT cell line) co-cultured with CD1d transfected T84D cells; assay: CD1d-restricted NKT cell activation (T84D/DN32 co-culture, IL-2 ELISA); assay type: cell-based, murine; details: for CD1d dependent NKT cell activation (IL-2 present in the supernatants): solvent control, PI or myo-inositol, FIG. 2
Protocol: (§1) A CD1d transfected epithelial cell line T84D was pulsed with alpha-GalactosylCeramide and co-cultured with PI at different concentrations. NKT cell activation was determined by measurement of IL-2 present in the supernatants. FIG. 2: Phosphatidyl-inositol but not myo-inositol blocks CD1d dependent NKT cell activation. A CD1d transfected epithelial cell line T84D was pulsed with a GalactosylCeramide and co-cultured with either solvent control, PI or myo-inositol. NKT cell activation was determined by measurement of IL-2 present in the supernatants. FIG. 3: Differential effect of PI and PS on cellular viability and immune suppression. T cells were suspended at 10^6 cells/ml in 24-wells plates (1 ml suspension per well). Cells were either left untreated (PMA 0 Cal 0) or activated with 5 ng/ml PMA +0.1 μg/ml calcium ionophore A23187 (PMA 5 ng/ml Cal 0.1 ug/ml) in the presence of PI or PS at the indicated concentrations (expressed in pg/ml). Panel A: Following a 24 hour incubation period in the presence of the indicated lipids and stimuli cellular viability was measured using flow cytometric detection of 7-AAD stained cells. […] FIG. 4: IPL strongly affects early survival in oxazolone colitis model. For experimental details see Example 2A. FIG. 5: Suppression of IL-2 production by intestinal T cells upon IPL intrarectal treatment of oxazolone-colitis mice. Mice were treated with saline (group A) or PI (group B) twenty minutes prior to challenge with oxazolone to induce colitis. Mice were sacrificed and intestinal T cells were analyzed for IL-2 production upon stimulation by aCD3/aCD28 during a period of 48 hours (panel A) or 72 hours (panel B). […] C Histopathology of the whole colon was assessed by blindly scoring each separate field of view at a 4× magnification by means of a TNBS score. […]
On day 0, T84D cells (a human epithelial cell line transfected with CD1d) were incubated overnight with a GalCer (10 mg/ml). […] Supernatants were collected and IL-2 cytokine production by DN32 (reflecting T cell activation) was determined by means of ELISA.

T cells [5] = assay: Cellular viability of T cells (flow cytometric 7-AAD detection); assay type: cell-based; details: FIG. 3A
Protocol: as §1, with “B). ALN=axillair LN; MLN=mediastinal LN; ILN=iliacal LN. For further details see Example 2A. FIG. 6: Treatment with IPL (non-liposomal aerosol) prevents the typical histo-pathological changes that are associated with an asthma mouse model. For experimental details see Example 2B.” for “B).”

oxazolone colitis = assay: Oxazolone colitis model, intra-rectal PI; assay type: in vivo, mice
Protocol: On day 0 male wild type black/6 mice (Charles Rivers) of 7-10 weeks old were sensitized epicutaneously with 150 μl 3% 4-ethoxymeyhylene-2-phenyl-oxazolin-5-one (oxazolone; Sigma) in 100% ethanol. At day 5, mice were challenged, under anesthesia of ketamine (80 mg/kg) and xylazine (10 mg/kg), by rectal administration of 100 μl 2% oxazolone in aqueous ethanol (50%). Twenty minutes prior to challenge mice were treated intra-rectally with 100 μl saline (control) or PI (2 mg/ml). All […] groups contained 8 mice. Mice were weighted at day 5, 6, 7, and 8 and were sacrificed at day 8.
Colonic tissue was fixed with 4% natural buffered formalin solution, embedded in paraffin, cut into 5μ tissue sections, and stained with hematoxylin and eosin (H&E). Using a score that has been described previously for oxazolone colitis (REF), the stained sections were examined for evidence of colitis. Spleen, axillary lymph nodes (ALN), mesenteric lymph nodes (MLN) and iliacal lymph nodes (ILN) were isolated and stimulated ex-vivo with either PBS (control) or with aCD3/aCD28 (100 μl of 2 μg/ml each) in IMDM medium. After 48 and 72 hours, the production of IL-2 was measured by means of ELISA (Beckton & Dickinson).

OVA-induced asthma = assay: OVA asthma model, intra-tracheal PI; assay type: in vivo, mice; details: PI intra-tracheally before OVA aerosol challenge
Protocol: On days one and eight male wildtype Balb/c mice (Charles Rivers) of 7-10 weeks old were sensitized by intra-peritoneal (i.p.) injection of 20 μg of OVA (Sigma), emulsified in 2.25 mg of alum (AlumImuject; Pierce). On days 15, 16 and 17 mice were sedated and received 80 μl of one of three solutions of PI (0 μg/ml, 200 μg/ml or 2 mg/ml) intra-tracheally (i.t). Subsequently the mice were challenged by 20 minutes of inhalation exposure to 60 μl of aerosols containing OVA (1% in saline). All three groups contained 8 mice. Mice were sacrificed at day 18.
Lungs were flushed with 3 ml saline and the cells in this Broncho Alveolar Lavage (BAL) were identified and quantified through FACS analysis. Subsequently the lungs were freeze-fixed, cut into 5 μm tissue sections and stained with May-Grunwald-Giemsa (MGG). The stained sections were examined for the presence of inflammatory cell infiltration such as eosinophils.

[6] = anti-CD3/anti-CD28 re-stimulation, 48 h, vs saline treated group, p<0.05, FIG. 8D
[7] = 24 hour incubation, untreated or 5 ng/ml PMA + 0.1 μg/ml A23187

Compound: phosphatidyl inositol [PI]
- DNA synthesis in activated peripheral blood cells [1]: only partially effective
- T cell activation measured by IL-2 cytokine production (T cells [2]; FIG. 3B): inhibitory effect
- reversibility of the suppressive effect (T cells [2]; data not shown): reversible
- T cell activation (T cells [2]; phorbol ester and calcium ionophore, or stimulation of CD3 and CD28, FIG. 3B): directly inhibit
- symptoms or adverse signs [3]: did not show any symptoms or adverse signs
- general appearance (fur, behavior) (TNBS colitis; PI 5 mg/ml i.p. every 12 h vs saline, FIG. 8A): appeared less diseased
- weight loss (TNBS colitis; PI i.p. vs control saline treatment, FIG. 8B): dramatic reduction in weight loss
- start of weight recovery (TNBS colitis; PI i.p., saline treated mice did not re-gain weight, FIG. 8B): 1.5 days
- IL-10 production (TNBS colitis; anti-CD3/anti-CD28 re-stimulation, 48 h, vs saline treated group, FIG. 8D): no difference
- IFN-γ production by MLNs (TNBS colitis; [6]): significantly less production
- IL-17 production by ILNs and MLNs (TNBS colitis; [6]): significantly less production
- colon histology (TNBS score) (TNBS colitis; day 3, field of view number 5, FIG. 8C): near normal histology
- NKT cell activation (IL-2 present in the supernatants) ([4]; T84D pulsed with alpha-GalactosylCeramide, PI at different concentrations, FIG. 1): Dose-dependent inhibition
- CD1d dependent NKT cell activation (IL-2 present in the supernatants) [4]: blocks
- cellular viability (T cells [5]; [7]): does not significantly affect cellular viability
- cellular viability (T cells [5]; up to the highest dose tested (100 μg/ml)): does not affect cellular viability
- weight loss (oxazolone colitis; 100 μl PI 2 mg/ml intra-rectally 20 min prior to oxazolone challenge): diminished weight loss
- survival (oxazolone colitis; 100 μl PI 2 mg/ml intra-rectally 20 min prior to oxazolone challenge, FIG. 4): increased survival
- IL-2 production upon ex-vivo stimulation of intestinal T cells (oxazolone colitis; aCD3/aCD28 stimulation, 48 and 72 hours, FIG. 5): suppressed
- histopathological changes of the lungs (OVA-induced asthma; FIG. 6): reduces
- influx of eosinophils (BAL) (OVA-induced asthma; FIG. 7): strongly inhibits

Compound: O[C@H]1[C@H](O)[C@@H](O)[C@H](O)[C@@H](O)[C@H]1O [myo-inositol, reference compound]
- CD1d dependent NKT cell activation (IL-2 present in the supernatants) [4]: no significant suppressive effect

Compound: phosphatidyl serine [PS, reference compound]
- DNA synthesis in activated peripheral blood cells [1]: inhibition
- T cell activation measured by IL-2 cytokine production (T cells [2]; FIG. 3B): stimulatory effect
- cellular viability (T cells [5]; [7]): toxic for activated cells in a dose-dependent manner
